The subject of this assay is L1210 leukemia ip in BDF1 mice, survival T/C. In words: NCI In Vivo Anticancer Drug Screen. Data for tumor model L1210 Leukemia (intraperitoneal) in B6D2F1 (BDF1) mice. As to conditions: endpoint: mean survival time, higher = longer survival. Put shortly: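 Transplanted-tumor mice were given test agent; controls received vehicle only. Survival readings from the two groups were divided (treated over control).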

[1] abbreviates: dose: 100.0 mg/kg/injection, schedule: Q04DX003 (ip), vehicle: Klucel (hydroxypropylcellulose) (HPC).
The mark [2] stands for this setting: dose: 200.0 mg/kg/injection, schedule: Q01DX009 (ip), vehicle: Klucel (hydroxypropylcellulose) (HPC).
Setting [3] is: dose: 200.0 mg/kg/injection, schedule: Q04DX003 (ip), vehicle: saline.
Setting [4] is: dose: 400.0 mg/kg/injection, schedule: Q04DX003 (ip), vehicle: Klucel (hydroxypropylcellulose) (HPC).
Setting [5] is: dose: 100.0 mg/kg/injection, schedule: Q01DX001 (ip), vehicle: saline.
[6] abbreviates: dose: 200.0 mg/kg/injection, schedule: Q01DX001 (ip), vehicle: saline.

Experimental findings from PubChem BioAssay AID248 (DTP/NCI, 2004) are described below.

Several values for one entry are separate records, joined by “and”; a condition that tells them apart may be missing. Equal entries are not always repeated. Toxic doses and inconclusive results are not listed.

With `CC1(C)N=C(N)N=C(N)N1c1ccc(CCCCc2ccc(S(=O)(=O)F)cc2Cl)c(Cl)c1`, the T/C (dose: 3.12 mg/kg/injection, schedule: Q01DX009 (ip), vehicle: Klucel (hydroxypropylcellulose) (HPC)) was 102 % of control; the T/C (dose: 3.12 mg/kg/injection, schedule: Q04DX003 (ip), vehicle: Klucel (hydroxypropylcellulose) (HPC)) is 97 % of control; the T/C (dose: 6.25 mg/kg/injection, schedule: Q01DX009 (ip), vehicle: Klucel (hydroxypropylcellulose) (HPC)) was 100 % of control; the T/C (dose: 6.25 mg/kg/injection, schedule: Q01DX009 (ip), vehicle: saline) was 116 % of control; the T/C (dose: 6.25 mg/kg/injection, schedule: Q04DX003 (ip), vehicle: Klucel (hydroxypropylcellulose) (HPC)) is 105 % of control; the T/C (dose: 7.26 mg/kg/injection, schedule: Q01DX009 (ip), vehicle: saline) was 111 % of control. Further, the T/C is, setting by setting: (dose: 7.26 mg/kg/injection, schedule: Q04DX003 (ip), vehicle: saline) 115 % of control; (dose: 10.89 mg/kg/injection, schedule: Q01DX009 (ip), vehicle: saline) 117 % of control; (dose: 12.5 mg/kg/injection, schedule: Q01DX009 (ip), vehicle: Klucel (hydroxypropylcellulose) (HPC)) 105 % of control; (dose: 12.5 mg/kg/injection, schedule: Q04DX003 (ip), vehicle: Klucel (hydroxypropylcellulose) (HPC)) 105 % of control; (dose: 24.0 mg/kg/injection, schedule: Q01DX009 (ip), vehicle: saline with Tween-80) 122 % of control; (dose: 25.0 mg/kg/injection, schedule: Q01DX009 (ip), vehicle: Klucel (hydroxypropylcellulose) (HPC)) 107 % of control and 122 % of control. In addition, the T/C was 115 % of control (dose: 25.0 mg/kg/injection, schedule: Q04DX003 (ip), vehicle: Klucel (hydroxypropylcellulose) (HPC)); 112 % of control (dose: 50.0 mg/kg/injection, schedule: Q04DX003 (ip), vehicle: Klucel (hydroxypropylcellulose) (HPC)); 98 % of control (dose: 75.0 mg/kg/injection, schedule: Q01DX009 (ip), vehicle: saline with Tween-80); 116 % of control (dose: 75.0 mg/kg/injection, schedule: Q01DX009 (ip), vehicle: saline); 88 % of control (dose: 100.0 mg/kg/injection, schedule: Q01DX009 (ip), vehicle: saline); 118 % of control under setting [1]. Besides, the T/C was 96 % of control (dose: 150.0 mg/kg/injection, schedule: Q01DX009 (ip), vehicle: saline); 117 % of control (dose: 150.0 mg/kg/injection, schedule: Q04DX003 (ip), vehicle: saline with Tween-80); 109 % of control under setting [2]; 120 % of control under setting [3]; 98 % of control (dose: 300.0 mg/kg/injection, schedule: Q01DX009 (ip), vehicle: saline); 152 % of control (dose: 300.0 mg/kg/injection, schedule: Q04DX003 (ip), vehicle: Klucel (hydroxypropylcellulose) (HPC)). For the same molecule, the T/C reads like this: (dose: 300.0 mg/kg/injection, schedule: Q04DX003 (ip), vehicle: saline) 152 % of control; under setting [4], 113 % of control; (dose: 450.0 mg/kg/injection, schedule: Q04DX003 (ip), vehicle: saline) 111 % of control.
Consider `CC(=O)Nc1ccc(Cl)c(Cl)c1`, for which the T/C reads like this: under setting [1], 107 % of control; (dose: 100.0 mg/kg/injection, schedule: Q04DX003 (ip), vehicle: other) 101 % of control; (dose: 200.0 mg/kg/injection, schedule: Q04DX003 (ip), vehicle: Klucel (hydroxypropylcellulose) (HPC)) 114 % of control; (dose: 200.0 mg/kg/injection, schedule: Q04DX003 (ip), vehicle: other) 98 % of control; under setting [4], 87 % of control; (dose: 400.0 mg/kg/injection, schedule: Q04DX003 (ip), vehicle: other) 101 % of control.
On to `[N-]=[N+]=NCC(=O)NCc1cnccn1`, for which the T/C (dose: 12.5 mg/kg/injection, schedule: Q01DX009 (ip), vehicle: saline) is 114 % of control; the T/C (dose: 25.0 mg/kg/injection, schedule: Q01DX009 (ip), vehicle: saline) was 105 % of control; the T/C (dose: 50.0 mg/kg/injection, schedule: Q01DX009 (ip), vehicle: saline) is 112 % of control; the T/C (dose: 100.0 mg/kg/injection, schedule: Q04DX003 (ip), vehicle: saline) is 102 % of control; the T/C under setting [3] was 96 % of control; the T/C (dose: 400.0 mg/kg/injection, schedule: Q04DX003 (ip), vehicle: saline) is 96 % of control.
As to `Nc1nnc(N)n1N`, the T/C is 105 % of control (dose: 87.5 mg/kg/injection, schedule: Q04DX003 (ip), vehicle: Klucel (hydroxypropylcellulose) (HPC)); 100 % of control (dose: 175.0 mg/kg/injection, schedule: Q04DX003 (ip), vehicle: Klucel (hydroxypropylcellulose) (HPC)); 103 % of control (dose: 350.0 mg/kg/injection, schedule: Q04DX003 (ip), vehicle: Klucel (hydroxypropylcellulose) (HPC)).
Consider `COc1ccccc1CCCOC(=O)c1ccc([N+](=O)[O-])cc1`, for which the T/C runs as follows: (dose: 100.0 mg/kg/injection, schedule: Q01DX001 (ip), vehicle: saline with Tween-80) 100 % of control; (dose: 200.0 mg/kg/injection, schedule: Q01DX001 (ip), vehicle: saline with Tween-80) 95 % of control; (dose: 400.0 mg/kg/injection, schedule: Q01DX001 (ip), vehicle: saline with Tween-80) 89 % of control.
Regarding `c1c[nH]c(C2Nc3ccccc3S2)c1` (stereo not given), the T/C under setting [5] is 93 % of control and the T/C under setting [6] is 95 % of control.
With `COc1cccc(NC(=O)c2ccc(C(=O)Nc3cccc(OC)c3)cc2)c1`, the T/C (dose: 50.0 mg/kg/injection, schedule: Q01DX001 (ip), vehicle: saline) is 98 % of control; the T/C under setting [5] was 96 % of control; the T/C under setting [6] was 91 % of control.
Turning to `CC1=NN(c2ccccc2)C(=O)/C1=C\c1ccccc1`, the T/C runs as follows: (dose: 100.0 mg/kg/injection, schedule: Q01DX009 (ip), vehicle: Klucel (hydroxypropylcellulose) (HPC)) 97 % of control; under setting [2], 95 % of control.
As for `O=[N+]([O-])C12CC3CC(CC(C3)C1)C2`, the T/C was 114 % of control (dose: 100.0 mg/kg/injection, schedule: Q01DX001 (sc), vehicle: olive oil, sesame oil, peanut oil); 108 % of control (dose: 200.0 mg/kg/injection, schedule: Q01DX001 (sc), vehicle: olive oil, sesame oil, peanut oil); 93 % of control (dose: 400.0 mg/kg/injection, schedule: Q01DX001 (sc), vehicle: olive oil, sesame oil, peanut oil).
As to `O=c1cc(C2CCCCC2)[nH]c(=S)[nH]1`, the T/C is 101 % of control (dose: 50.0 mg/kg/injection, schedule: Q01DX001 (ip), vehicle: carboxymethylcellulose (CMC)); 92 % of control (dose: 100.0 mg/kg/injection, schedule: Q01DX001 (ip), vehicle: carboxymethylcellulose (CMC)); 86 % of control (dose: 200.0 mg/kg/injection, schedule: Q01DX001 (ip), vehicle: carboxymethylcellulose (CMC)); 90 % of control (dose: 400.0 mg/kg/injection, schedule: Q01DX001 (ip), vehicle: carboxymethylcellulose (CMC)).
For the molecule `CO/C(=C(/C)C(=O)O)c1c(C)cc(C)c(Br)c1C`, the T/C (dose: 75.0 mg/kg/injection, schedule: Q01DX009 (ip), vehicle: Klucel (hydroxypropylcellulose) (HPC)) is 98 % of control; the T/C (dose: 150.0 mg/kg/injection, schedule: Q01DX009 (ip), vehicle: Klucel (hydroxypropylcellulose) (HPC)) is 95 % of control; the T/C (dose: 300.0 mg/kg/injection, schedule: Q01DX009 (ip), vehicle: Klucel (hydroxypropylcellulose) (HPC)) is 109 % of control.
For the molecule `O=C(N/N=C/c1ccc2c(c1)OCO2)c1ccco1`, the T/C is, setting by setting: (dose: 100.0 mg/kg/injection, schedule: Q01DX001 (ip), vehicle: other) 96 % of control; (dose: 200.0 mg/kg/injection, schedule: Q01DX001 (ip), vehicle: other) 93 % of control; (dose: 400.0 mg/kg/injection, schedule: Q01DX001 (ip), vehicle: other) 98 % of control.
